Literature values as cited in US9603811B2, “Pharmaceutical compositions of carotenoid chylomicrons” (HEALTH-EVER BIOTECH CO. LTD, priority 2013, dated 2017).
Read-outs that look alike come from different tables or passages of the source.

## CC(C)=CCC/C(C)=C/C=C/C(C)=C/C=C/C(C)=C/C=C/C=C(C)/C=C/C=C(C)/C=C/C=C(\C)CCC=C(C)C [solanorubin]
  solubility in water: practically insoluble in water
Listed as Solanorubin
  solubility in water: insoluble in water
